System: Recombinant influenza A virus hemagglutinin H3 protein (HA)
Conditions: SPR sensorgrams Fig. 3A-D

Molecule	Rmax, binding to HA [RU]
CVN2L0-V2: CVN2L0 variant with one C58E–C73R substitution, three disulfide bonds	723
CVN2L0-V4: CVN2L0 variant with Cys–Cys mutagenesis to Trp–Met and Glu–Arg, two disulfide bonds (protein, left off: His6, N-terminal, state not stated) LGKFSQTCYNSAIQGSVLTSTCERTNGGYNTSSIDLNSVIENVDGSLKWQPSNFIETWRNTQLAGSSELAAEMKTRAQQFVSTKINLDDHIANIDGTLKYELGKFSQTCYNSAIQGSVLTSTCERTNGGYNTSSIDLNSVIENVDGSLKWQPSNFIETERNTQLAGSSELAAERKTRAQQFVSTKINLDDHIANIDGTLKYE	34
